Measured values taken from patent US20120122822A1, “COMPOSITIONS FOR REDUCING BETA-AMYLOID-INDUCED NEUROTOXICITY COMPRISING BETA-SECRETASE INHIBITOR” (Phloronol, Inc., priority 2010, published 2012).
Where two headings read alike, the source gives them in different places.

Legend:
[1] = tested on: beta amyloid (Aβ) production in N2a/APP cells; assay: Inhibition of beta amyloid Aβ(1-42) production in nerve cells, immunoassay; format: cell-based; details: read-out: Aβ Inhibition Rate (%)
Method: N2a/APP cells, used as a study model for neurodegenerative diseases (Wang X C, Zhang Y C, Chatterjie N, Grundke-Iqbal I, Iqbal K, Wang J Z. Neurochem Res (2008) 33:1138-1144), were employed to analyze the inhibition of beta amyloid (Aβ) production in nerve cells. N2a/APP cells were fixed onto 24-well plates (5×10^4 cells/well) containing a medium devoid of hygromycin B. The ingredients listed in Table 5 were added at a final concentration of 10 μg/mL to each well and incubated for 48 hrs. Secreted Aβ(1-42) was quantitatively analyzed with an Aβ(1-42) immunoassay kit (Biosource, Camarillo, Calif., USA). In this regard, the medium in each well was transferred into 96-well plates coated with an Aβ(1-42) antibody and then treated with a detection antibody. For this, after incubation at room temperature for 3 hrs, the medium was treated with HRP (horseradish peroxidase), an anti-rabbit antibody and stabilized chromogen to allow an antigen-antibody reaction. This reaction was terminated with a stop buffer before absorbance was read at 450 nm. For a negative control, no samples were added to the medium. Inhibitory effects on beta amyloid production were calculated according to the following equation and the results are summarized in Table 5, below.
Aβ Inhibition (%)=(C−S)/C×100
(§1) where C is the absorbance of a negative control and S is the absorbance of each sample.

N2a/APP cells = assay: Reduction of neurotoxicity, MTT cell viability assay; format: cell-based; details: 10 μg/mL, 12 hrs
Method: For this, N2a/APP cells were subjected to an MTT assay, which is a measure of mitochondrial activity that converts 3-(4,5-dimethyl-thiazol-2-yl)-2,5-diphenyl-tetrazolium bromide (MTT) to formazan in living cells. N2a/APP cells were seeded at a density of 1×10^4 cells/well into 96-well plates, incubated for 24 hrs, and left for 12 hrs in serum-free DMEM-Opti-MEM. Thereafter, the samples listed in Table 5 were added at a final concentration of 10 μg/mL to each well (medium free of any of the samples was used for a negative control) and then incubated for 12 hrs. To each well was added approx. 10 μL of MTT (5 mg/ml in phosphate buffered saline (PBS) solution), followed by incubation at 37° C. for 4 hrs. Each well was measured for absorbance at 570 nm. Inhibitory activity against neurotoxicity was assessed by an increase rate of cell viability as calculated by the following equation.
Increase Rate of Cell Viability (%)=(S−C)/C×100
as §1

human recombinant BACE1 = target: T1, human recombinant BACE1 (Homo sapiens, UniProt P56817); assay: β-secretase inhibition, human recombinant BACE1 assay kit (PanVera), fluorescence; format: biochemical; details: for inhibition at 0.01 µM: read-out: BACE Inhibition at 10 nM; for IC50: β-secretase (BACE)
T1 construct: purchased PanVera, Wis., USA
T1 sequence (P56817 46-501): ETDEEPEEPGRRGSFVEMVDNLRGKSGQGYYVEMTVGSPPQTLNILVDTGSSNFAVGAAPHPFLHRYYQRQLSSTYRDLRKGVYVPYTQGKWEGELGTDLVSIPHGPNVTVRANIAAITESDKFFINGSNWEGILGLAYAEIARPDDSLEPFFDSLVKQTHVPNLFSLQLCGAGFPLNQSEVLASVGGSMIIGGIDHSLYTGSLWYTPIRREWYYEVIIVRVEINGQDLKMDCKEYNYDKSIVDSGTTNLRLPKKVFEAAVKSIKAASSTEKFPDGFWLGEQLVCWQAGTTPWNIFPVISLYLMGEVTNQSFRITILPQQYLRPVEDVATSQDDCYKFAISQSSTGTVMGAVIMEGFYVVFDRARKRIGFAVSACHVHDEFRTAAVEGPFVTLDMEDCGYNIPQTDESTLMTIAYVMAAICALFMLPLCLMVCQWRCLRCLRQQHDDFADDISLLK
Method: The primary 1,3,5-trihydroxybenzene polymer products obtained under the various conditions were assayed for inhibitory activity against β-secretase. For this purpose, a human recombinant BACE1 assay kit (PanVera, Wis., USA) was used according to the manufacturer's instructions.
For a negative control, an assay buffer containing none of the samples was used instead of the sample solution. In the absence of light, each reaction mixture was allowed to react at 25° C. for 60 min. Thereafter, while a light beam at 528 nm was applied to the reaction mixture, fluorescent light at 620 nm was detected with Bio-Tek Microplate fluorescence reader FLx 800 (VT, USA). Inhibition activity was calculated according to the following formula:
Inhibition (%)=[1−{(S−S0)/(C−C0)}]×100
C is a fluorescent intensity after reaction of the negative control for 60 min,
C0 is an initial fluorescent intensity of the negative control,
S is a fluorescent intensity after reaction of each sample for 60 min, and
S0 is an initial fluorescent intensity of each sample.

[2] = N2a/APP cells, 10 μg/mL, 48 hrs, secreted Aβ(1-42)

Row | inhibition at 0.01 µM (human recombinant BACE1) | IC50 (human recombinant BACE1) | SMILES | inhibition at 10 µg/mL [1, 2] | Increase Rate of Cell Viability (%) (N2a/APP cells) | inhibition at 10 µg/mL ([1]; 48 h)
1 | 87% | 1.7 nM | Oc1cc(O)cc(Oc2c(O)cc(O)c3c2oc2cc(O)c4c(c23)Oc2c(O)cc(O)cc2O4)c1 [Chemical Formula 3-2] |  |  | 
2 | 90% | 1.5 nM | Oc1cc(O)cc(Oc2c(O)cc(O)c3c2Oc2c(O)cc4oc5cc(O)cc(O)c5c4c2O3)c1 [Chemical Formula 3-4] |  |  | 
3 | 94% | 1.3 nM | Oc1cc(O)cc(Oc2c(O)cc3c(c2O)Oc2c(c(O)cc4oc5c(Oc6cc(O)cc(O)c6)c(O)cc(O)c5c24)O3)c1 [Chemical Formula 3-6] | 30% | 22% | 
4 | 65% | 4.7 nM | Oc1cc(O)c2c(c1)Oc1c(cc3oc4cc(O)cc(O)c4c3c1O)O2 [Chemical Formula 4-1] |  |  | 
5 | 77% | 3.6 nM | Oc1cc(O)cc(Oc2c(O)cc(O)c3c2oc2cc4c(c(O)c23)Oc2cc(O)cc(O)c2O4)c1 [Chemical Formula 4-2] |  |  | 
6 | 70% | 4 nM | Oc1cc(O)cc(Oc2c(O)cc(O)c3c2Oc2c(cc4oc5cc(O)cc(O)c5c4c2O)O3)c1 [Chemical Formula 4-3] |  |  | 
7 | 86% | 2.4 nM | Oc1cc(O)cc(Oc2c(O)cc(O)c3c2Oc2c(cc4oc5c(Oc6cc(O)cc(O)c6)c(O)cc(O)c5c4c2O)O3)c1 [Chemical Formula 4-4] | 27% | 21% | 

Further lines, the compound ahead of its results:

Row | SMILES | inhibition at 0.01 µM (human recombinant BACE1) | IC50 (human recombinant BACE1) | inhibition at 10 µg/mL [1, 2] | Increase Rate of Cell Viability (%) (N2a/APP cells) | inhibition at 10 µg/mL ([1]; 48 h)
8 | C[C@H](NC(=O)Cc1cc(F)cc(F)c1)C(=O)N[C@@H]1C(=O)N(C)c2ccccc2-c2ccccc21 [C. Ex. 2, (S)-2-[2-(3,5-Difluoro-phenyl)-acetylamino]-N-((S)-5-methyl-6-oxo-6,7-dihydro-5H-dibenzo[b,d]azepin-7-yl)-propionamide] |  |  | 21% | 5% | 
9 | C[C@H](NC(=O)Cc1cc(F)cc(F)c1)C(=O)N[C@H]1N=C(c2ccccc2)c2ccccc2N(C)C1=O [C. Ex. 3, (S)-2-[2-(3,5-Difluoro-phenyl)-acetylamino]-N-((S)-1-methyl-2-oxo-5-phenyl-2,3-dihydro-1H-benzo[e][1,4]diazepin-3-yl)-propionamide] |  |  |  | −5% | 22%
10 | CC(C)Cc1ccc(C(C)C(=O)O)cc1 (centres unmarked) [C. Ex. 4, ibuprofen] |  |  | 17% | 2% | 
11 | Cc1ccc(-c2cc(C(F)(F)F)nn2-c2ccc(S(N)(=O)=O)cc2)cc1 [C. Ex. 5, celecoxib] |  |  | 19% | 15% | 
12 | O=c1c(O)c(-c2ccc(O)c(O)c2)oc2cc(O)cc(O)c12 [C. Ex. 6, quercetin] |  |  |  | 12% | 17%
13 | Oc1ccc(C=Cc2cc(O)cc(O)c2)cc1 [C. Ex. 7, resveratrol] |  |  |  | 10% | 13%
14 | Oc1cc(O)c2c(c1)Oc1c(O)cc3oc4cc(O)cc(O)c4c3c1O2 [Chemical Formula 3-1] | 53% | 5.8 nM |  |  | 
